Measured values published in patent publication US20200291018A1, “TAM KINASE INHIBITORS” (SYROS PHARMACEUTICALS, INC., priority 2017, published 2020).

Tests used:
[1] = target: T1, MERTK (Homo sapiens, UniProt Q12866); experiment: TR-FRET kinase activity assay, MERTK; type: biochemical; details: for IC50: TR-FRET activity assay, ATP at Km, 60 minutes, read-out: Mer IC50; for Mer/Flt3 ratio (FLT3 IC50/Mer IC50): ratio calculated as FLT3 IC50/Mer IC50
T1 sequence (Q12866 21-999): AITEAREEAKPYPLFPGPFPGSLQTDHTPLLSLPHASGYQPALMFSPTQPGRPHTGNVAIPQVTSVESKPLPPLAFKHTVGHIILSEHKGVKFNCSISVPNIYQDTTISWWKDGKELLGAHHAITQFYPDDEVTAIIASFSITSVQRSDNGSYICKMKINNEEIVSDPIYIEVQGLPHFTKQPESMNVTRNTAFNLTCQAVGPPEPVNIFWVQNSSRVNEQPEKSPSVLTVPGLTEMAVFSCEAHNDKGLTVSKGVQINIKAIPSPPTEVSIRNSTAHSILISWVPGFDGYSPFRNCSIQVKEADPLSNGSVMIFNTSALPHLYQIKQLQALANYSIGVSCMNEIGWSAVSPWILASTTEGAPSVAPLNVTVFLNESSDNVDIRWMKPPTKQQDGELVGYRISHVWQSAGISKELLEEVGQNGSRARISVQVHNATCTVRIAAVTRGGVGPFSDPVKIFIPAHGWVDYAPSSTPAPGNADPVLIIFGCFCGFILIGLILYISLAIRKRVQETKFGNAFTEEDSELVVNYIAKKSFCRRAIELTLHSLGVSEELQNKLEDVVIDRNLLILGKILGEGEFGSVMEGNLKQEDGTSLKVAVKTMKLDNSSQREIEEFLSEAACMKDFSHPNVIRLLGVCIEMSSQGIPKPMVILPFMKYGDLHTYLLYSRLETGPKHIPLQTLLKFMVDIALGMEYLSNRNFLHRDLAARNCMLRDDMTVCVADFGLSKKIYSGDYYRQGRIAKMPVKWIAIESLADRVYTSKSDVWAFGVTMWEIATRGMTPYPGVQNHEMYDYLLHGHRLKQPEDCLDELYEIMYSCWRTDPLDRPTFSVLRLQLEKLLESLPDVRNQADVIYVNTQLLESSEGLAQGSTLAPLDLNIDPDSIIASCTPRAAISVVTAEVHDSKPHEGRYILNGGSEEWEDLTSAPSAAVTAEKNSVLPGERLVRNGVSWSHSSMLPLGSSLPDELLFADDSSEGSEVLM
Procedure, shortened: (§1)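 IC50s come from loss of TR-FRET between a Eu-labeled phospho-site antibody and fluorescent tyrosine-phosphorylated peptide. Kinase reactions, initiated with Km ATP, ran 60 min at RT at pH 7.5 before EDTA quench.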

[2] = target: T2, TYRO3 (Homo sapiens, UniProt Q06418); experiment: TR-FRET kinase activity assay, TYRO3; type: biochemical; details: ATP at Km, 60 minutes
T2 sequence (Q06418 41-890): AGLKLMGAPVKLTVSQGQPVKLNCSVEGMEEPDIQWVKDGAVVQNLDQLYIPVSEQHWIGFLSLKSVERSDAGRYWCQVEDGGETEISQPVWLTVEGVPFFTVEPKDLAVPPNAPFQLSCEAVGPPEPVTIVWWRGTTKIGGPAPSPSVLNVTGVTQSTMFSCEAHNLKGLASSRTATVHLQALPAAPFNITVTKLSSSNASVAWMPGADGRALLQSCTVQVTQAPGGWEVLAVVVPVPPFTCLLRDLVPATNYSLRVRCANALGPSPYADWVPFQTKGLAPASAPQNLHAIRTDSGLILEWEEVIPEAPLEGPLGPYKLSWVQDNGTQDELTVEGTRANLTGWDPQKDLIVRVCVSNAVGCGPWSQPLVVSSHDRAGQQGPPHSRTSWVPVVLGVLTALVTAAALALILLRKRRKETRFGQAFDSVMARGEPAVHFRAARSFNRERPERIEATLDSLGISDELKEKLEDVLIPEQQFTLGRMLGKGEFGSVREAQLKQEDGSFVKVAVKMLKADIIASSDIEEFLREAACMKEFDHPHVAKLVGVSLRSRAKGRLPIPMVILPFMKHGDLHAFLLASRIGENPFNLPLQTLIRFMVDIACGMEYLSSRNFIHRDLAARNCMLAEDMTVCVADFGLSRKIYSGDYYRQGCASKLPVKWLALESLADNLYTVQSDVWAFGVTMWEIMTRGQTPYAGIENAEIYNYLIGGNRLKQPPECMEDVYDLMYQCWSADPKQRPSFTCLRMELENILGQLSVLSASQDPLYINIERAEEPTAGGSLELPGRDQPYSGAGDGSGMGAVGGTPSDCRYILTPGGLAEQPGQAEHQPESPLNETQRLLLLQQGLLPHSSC
Procedure, shortened: as §1

Structure (SMILES)	IC50 [1] [nM]	Mer/Flt3 ratio (FLT3 IC50/Mer IC50) [1]	IC50 [2] [nM]
C[C@@H](CC(F)(F)F)Nc1ncc2c(OC3CCOCC3)ncc([C@H]3CC[C@H](O)CC3)c2n1 [Compound 305]	≤ 100	+++ (a ratio of >100)	≤ 100
CC[C@H](C)Nc1ncc2c(OC3CCN(c4ncccn4)CC3)ncc([C@H]3CC[C@H](O)CC3)c2n1 [Compound 306]	≤ 100	+++ (a ratio of >100)	100 to 1000
COC[C@H](C)Nc1ncc2c(OC3CCOCC3)ncc(-c3cccc(S(=O)(=O)N(C)C)c3)c2n1 [Compound 307, (S)-3-(2-((1-methoxypropan-2-yl)amino)-5-((tetrahydro-2H-pyran-4-yl)oxy)pyrido[4,3-d]pyrimidin-8-yl)-N,N-dimethylbenzenesulfonamide]	≤ 100	+++ (a ratio of >100)	100 to 1000
COC[C@H](C)Nc1ncc2c(O[C@@H]3CCNCC3(F)F)ncc([C@H]3CC[C@H](O)CC3)c2n1 [Compound 308]	≤ 100	+++ (a ratio of >100)	100 to 1000
COC[C@H](C)Nc1ncc2c(OC3CCOCC3)ncc(-c3ccc(N)cc3)c2n1 [Compound 309]	≤ 100	+++ (a ratio of >100)	100 to 1000
COCCN1C(C)(C)CC(Oc2ncc([C@H]3CC[C@H](O)CC3)c3nc(N[C@@H](C)COC)ncc23)CC1(C)C [Compound 310]	≤ 100	+++ (a ratio of >100)	≤ 100
C[C@@H](CCF)Nc1ncc2c(OC3CCOCC3)ncc([C@H]3CC[C@H](O)CC3)c2n1 [Compound 311]	≤ 100	+++ (a ratio of >100)	≤ 100
COCC[C@H](C)Nc1ncc2c(OC3CCOCC3)ncc([C@H]3CC[C@H](O)CC3)c2n1 [Compound 312]	≤ 100	+++ (a ratio of >100)	100 to 1000
CC(C)Nc1ncc2c(OC3CCOCC3)ncc(-c3cccc(S(C)(=O)=O)c3)c2n1 [Compound 313]	≤ 100	+++ (a ratio of >100)	100 to 1000
COC[C@H](C)Nc1ncc2c(OC3CCOCC3)ncc(-c3cnn([C@@H]4CCN(C)C4)c3)c2n1 [Compound 314]	100 to 1000	++ (a ratio of between 10 and 100)	100 to 1000
COC[C@H](C)Nc1ncc2c(OC3CCOCC3)ncc([C@H]3CC[C@H](NC(C)=O)CC3)c2n1 [Compound 315]	≤ 100	+++ (a ratio of >100)	100 to 1000
COC[C@H](C)Nc1ncc2c(OC3CCOCC3)ncc([C@H]3CC[C@H](NS(C)(=O)=O)CC3)c2n1 [Compound 316]	≤ 100	+++ (a ratio of >100)	≤ 100
CNS(=O)(=O)N[C@H]1CC[C@H](c2cnc(OC3CCOCC3)c3cnc(N[C@@H](C)COC)nc32)CC1 [Compound 317]	≤ 100	+++ (a ratio of >100)	≤ 100
CC(C)Nc1ncc2c(OC3CCOCC3)ncc(-c3cccc(S(=O)(=O)C(C)C)c3)c2n1 [Compound 318]	≤ 100	+++ (a ratio of >100)	100 to 1000
COC[C@H](C)Nc1ncc2c(OC3CCOCC3)ncc(-c3ccc(CC#N)cc3)c2n1 [Compound 319]	≤ 100	+++ (a ratio of >100)	100 to 1000
